Assay results published in US8497380B2, “Substituted acetophenones useful as PDE4 inhibitors” (Leo Pharma A/S, priority 2006, dated 2013).

system: Human peripheral blood mononuclear cells (PBMC); test: TNFalfa-Release; assay type: cell-based; conditions: inhibition of TNF-a secretion, PBMC pre-incubated 30 minutes, stimulated 18 hours with lipopolysaccharide
Protocol: Human peripheral blood mononuclear cells (PBMC) are Isolated from buffy coats. The blood is mixed with saline at a ratio of 1:1, and the PBMC is isolated by the use of Lymphoprep Tubes™ (Nycomed, Norway). The PBMC is suspended in RPMI1640 with 2% foetal calf serum (FCS), pen/strep and 2 mM L-glutamine at a concentration of 5×105 c/ml. The cells are pre-incubated for 30 minutes with the test compounds in 96 well tissue culture plates and stimulated for 18 hours with lipopolysaccharide 1 mg/ml (Sigma). The level of TNF-a is measured in the culture supernatant by enzyme immuno assays using primary and secondary biotinylated antibodies from R&D systems. Results are expressed as pIC50 values calculated from inhibition curves using as positive controls the secretion in LPS stimulated wells and as negative controls the secretion in unstimulated cells.

Structure (SMILES)	IC50
COc1ccc(C(=O)Cc2c(Cl)cncc2Cl)c(OCc2ccc(Cl)s2)c1OC [Compound 121, 1-[2-(5-Chloro-thiophen-2-ylmethoxy)-3,4-dimethoxy-phenyl]-2-(3,5-dichloro-pyridin-4-yl)-ethanone]	< 1000 nM
COc1ccc(C(=O)Cc2c(Cl)cncc2Cl)c(OCCOc2ccccc2)c1OC [Compound 122, 2-(3,5-Dichloro-pyridin-4-yl)-1-[3,4-dimethoxy-2-(2-phenoxy-ethoxy)-phenyl]-ethanone]	< 1000 nM
COc1ccc(C(=O)Cc2c(Cl)cncc2Cl)c(OCCc2ccc(C)cc2)c1OC [Compound 123, 2-(3,5-Dichloro-pyridin-4-yl)-1-[3,4-dimethoxy-2-(2-p-tolyl-ethoxy)-phenyl]-ethanone]	< 1000 nM
COc1ccc(C(=O)Cc2c(Cl)cncc2Cl)c(OCCCc2ccccc2)c1OC [Compound 124, 2-(3,5-Dichloro-pyridin-4-yl)-1-[3,4-dimethoxy-2-(3-phenyl-propoxy)-phenyl]-ethanone]	< 1000 nM
COc1cccc(CCOc2c(C(=O)Cc3c(Cl)cncc3Cl)ccc(OC)c2OC)c1 [Compound 125, 2-(3,5-Dichloro-pyridin-4-yl)-1-{3,4-dimethoxy-2-[2-(3-methoxy-phenyl)-ethoxy]-phenyl}-ethanone]	< 1000 nM
COc1ccc(CCOc2c(C(=O)Cc3c(Cl)cncc3Cl)ccc(OC)c2OC)cc1 [Compound 126, 2-(3,5-Dichloro-pyridin-4-yl)-1-{3,4-dimethoxy-2-[2-(4-methoxy-phenyl)-ethoxy]-phenyl}-ethanone]	< 1000 nM
COc1ccc(C(=O)Cc2c(Cl)cncc2Cl)c(OCCc2cccc(Br)c2)c1OC [Compound 127, 1-{2-[2-(3-Bromo-phenyl)-ethoxy]-3,4-dimethoxy-phenyl}-2-(3,5-dichloro-pyridin-4-yl)-ethanone]	< 1000 nM
COc1ccccc1CCOc1c(C(=O)Cc2c(Cl)cncc2Cl)ccc(OC)c1OC [Compound 128, 2-(3,5-Dichloro-pyridin-4-yl)-1-{3,4-dimethoxy-2-[2-(2-methoxy-phenyl)-ethoxy]-phenyl}-ethanone]	< 1000 nM
COc1ccc(C(=O)Cc2c(Cl)cncc2Cl)c(OCCc2ccc(F)cc2)c1OC [Compound 129, 2-(3,5-Dichloro-pyridin-4-yl)-1-{2-[2-(4-fluoro-phenyl)-ethoxy]-3,4-dimethoxy-phenyl}-ethanone]	< 1000 nM
COc1ccc(C(=O)Cc2c(Cl)cncc2Cl)c(OCCc2ccccc2F)c1OC [Compound 130, 2-(3,5-Dichloro-pyridin-4-yl)-1-(2-[2-(2-fluoro-phenyl)-ethoxy)-3,4-dimethoxy-phenyl]-ethanone]	< 1000 nM
COc1ccc(CCOc2c(C(=O)Cc3c(Cl)cncc3Cl)ccc(OC)c2OC)cc1OC [Compound 131, 2-(3,5-Dichloro-pyridin-4-yl)-1-{2-[2-(3,4-dimethoxy-phenyl)-ethoxy]-3,4-dimethoxy-phenyl}-ethanone]	< 1000 nM
COc1ccc(C(=O)Cc2c(Cl)cncc2Cl)c(OCC(=O)OCc2ccccc2)c1OC [Compound 132, {6-[2-(3,5-Dichloro-pyridin-4-yl)-acetyl]-2,3-dimethoxy-phenoxy}-acetic acid benzyl ester]	< 1000 nM
COc1ccc(C(=O)Cc2c(Cl)cncc2Cl)c(OCC(=O)OC(C)C)c1OC [Compound 133, {6-[2-(3,5-Dichloro-pyridin-4-yl)-acetyl]-2,3-dimethoxy-phenoxy}-acetic acid isopropyl ester]	< 1000 nM
COC(=O)c1cccc(COc2c(C(=O)Cc3c(Cl)cncc3Cl)ccc(OC)c2OC)c1 [Compound 134, 3-{6-[2-(3,5-Dichloro-pyridin-4-yl)-acetyl]-2,3-dimethoxy-phenoxymethyl}-benzoic acid methyl ester]	< 1000 nM
COc1ccc(C(=O)Cc2c(Cl)cncc2Cl)c(OCCC(C)C)c1OC [Compound 135, 2-(3,5-Dichloro-pyridin-4-yl)-1-(3,4-dimethoxy-2-(3-methyl-butoxy)-phenyl)-ethanone]	< 1000 nM
C=CCCOc1c(C(=O)Cc2c(Cl)cncc2Cl)ccc(OC)c1OC [Compound 137, 1-(2-But-3-enyloxy-3,4-dimethoxy-phenyl)-2-(3,5-dichloro-pyridin-4-yl)-ethanone]	< 1000 nM
C=CCCCOc1c(C(=O)Cc2c(Cl)cncc2Cl)ccc(OC)c1OC [Compound 138, 2-(3,5-Dichloro-pyridin-4-yl)-1-(3,4-dimethoxy-2-pent-4-enyloxy-phenyl)-ethanone]	< 1000 nM
CCCCOc1c(C(=O)Cc2c(Cl)cncc2Cl)ccc(OC)c1OC [Compound 140, 1-(2-Butoxy-3,4-dimethoxy-phenyl)-2-(3,5-dichloro-pyridin-4-yl)-ethanone]	< 1000 nM
COc1ccc(C(=O)Cc2c(Cl)cncc2Cl)c(OCC(C)C)c1OC [Compound 141, 2-(3,5-Dichloro-pyridin-4-yl)-1-(2-isobutoxy-3,4-dimethoxy-phenyl)-ethanone]	< 1000 nM

Structure (SMILES)	IC50
CCOC(=O)CCCOc1c(C(=O)Cc2c(Cl)cncc2Cl)ccc(OC)c1OC [Compound 142, 4-{6-[2-(3,5-Dichloro-pyridin-4-yl)-acetyl]-2,3-dimethoxy-phenoxy}-butyric acid ethyl ester]	< 1000 nM
COc1ccc(C(=O)Cc2c(Cl)cncc2Cl)c(OCc2ccc(C)cc2)c1OC [Compound 143, 2-(3,5-Dichloro-pyridin-4-yl)-1-[3,4-dimethoxy-2-(4-methyl-benzyloxy)-phenyl]-ethanone]	< 1000 nM
COc1ccc(C(=O)Cc2c(Cl)cncc2Cl)c(OCc2cccc(Cl)c2)c1OC [Compound 144, 1-[2-(3-Chloro-benzyloxy)-3,4-dimethoxy-phenyl]-2-(3,5-dichloro-pyridin-4-yl)-ethanone]	< 1000 nM
COc1ccc(C(=O)Cc2c(Cl)cncc2Cl)c(OCCCOc2ccccc2)c1OC [Compound 145, 2-(3,5-Dichloro-pyridin-4-yl)-1-[3,4-dimethoxy-2-(3-phenoxy-propoxy)-phenyl]-ethanone]	< 1000 nM
COc1ccc(C(=O)COc2c(C(=O)Cc3c(Cl)cncc3Cl)ccc(OC)c2OC)cc1 [Compound 146, 2-(3,5-Dichloro-pyridin-4-yl)-1-{3,4-dimethoxy-2-[2-(4-methoxy-phenyl)-2-oxo-ethoxy]-phenyl}-ethanone]	< 1000 nM
COc1ccc(C(=O)Cc2c(Cl)cncc2Cl)c(OCc2ccccc2C#N)c1OC [Compound 147, 2-{6-[2-(3,5-Dichloro-pyridin-4-yl)-acetyl]-2,3-dimethoxy-phenoxymethyl}-benzonitrile]	< 1000 nM
COc1ccc(C(=O)Cc2c(Cl)cncc2Cl)c(OCc2ccc(C#N)cc2)c1OC [Compound 148, 4-{6-[2-(3,5-Dichloro-pyridin-4-yl)-acetyl]-2,3-dimethoxy-phenoxymethyl}-benzonitrile]	< 1000 nM
CCCCCOc1c(C(=O)Cc2c(Cl)cncc2Cl)ccc(OC)c1OC [Compound 150, 2-(3,5-Dichloro-pyridin-4-yl)-1-(3,4-dimethoxy-2-pentyloxy-phenyl)-ethanone]	< 1000 nM
COc1ccc(C(=O)Cc2c(Cl)cncc2Cl)c(OCC2CCCCC2)c1OC [Compound 151, 1-(2-Cyclohexylmethoxy-3,4-dimethoxy-phenyl)-2-(3,5-dichloro-pyridin-4-yl)-ethanone]	< 1000 nM
COc1ccc(C(=O)Cc2c(Cl)cncc2Cl)c(OCc2cccc(C#N)c2)c1OC [Compound 152, 3-{6-[2-(3,5-Dichloro-pyridin-4-yl)-acetyl]-2,3-dimethoxy-phenoxymethyl}-benzonitrile]	< 1000 nM
COc1ccc(C(=O)Cc2c(Cl)cncc2Cl)c(OCCOc2ccc(Cl)cc2)c1OC [Compound 153, 1-{2-[2-(4-Chloro-phenoxy)-ethoxy]-3,4-dimethoxy-phenyl}-2-(3,5-dichloro-pyridin-4-yl)-ethanone]	< 1000 nM
COc1ccc(C(=O)Cc2c(Cl)cncc2Cl)c(OCCO)c1OC [Compound 155, 2-(3,5-Dichloro-pyridin-4-yl)-1-[2-(2-hydroxy-ethoxy)-3,4-dimethoxy-phenyl]-ethanone]	< 1000 nM
COc1ccc(C(=O)Cc2c(Cl)cncc2Cl)c(OCC(=O)c2ccc3ccccc3c2)c1OC [Compound 157, 2-(3,5-Dichloro-pyridin-4-yl)-1-[3,4-dimethoxy-2-(2-naphthalen-2-yl-2-oxo-ethoxy)-phenyl]-ethanone]	< 1000 nM
COc1ccc(C(=O)Cc2c(Cl)cncc2Cl)c(OCc2ccccc2F)c1OC [Compound 161, 2-(3,5-Dichloro-pyridin-4-yl)-1-[2-(2-fluoro-benzyloxy)-3,4-dimethoxy-phenyl]-ethanone]	< 1000 nM
COc1ccc(C(=O)Cc2c(Cl)cncc2Cl)c(OCc2cccc(C(F)(F)F)c2)c1OC [Compound 162, 2-(3,5-Dichloro-pyridin-4-yl)-1-[3,4-dimethoxy-2-(3-trifluoromethyl-benzyloxy)-phenyl]-ethanone]	< 1000 nM
COc1ccc(C(=O)Cc2c(Cl)cncc2Cl)c(OCc2cccc(OC(F)(F)F)c2)c1OC [Compound 163, 2-(3,5-Dichloro-pyridin-4-yl)-1-[3,4-dimethoxy-2-(3-trifluoromethoxy-benzyloxy)-phenyl]-ethanone]	< 1000 nM
COc1ccc(C(=O)Cc2c(Cl)cncc2Cl)c(OCc2ccccc2OC(F)F)c1OC [Compound 168, 2-(3,5-Dichloro-pyridin-4-yl)-1-[2-(2-difluoromethoxy-benzyloxy)-3,4-dimethoxy-phenyl]-ethanone]	< 1000 nM
COc1ccc(C(=O)Cc2c(Cl)cncc2Cl)c(OCc2c(F)cccc2C(F)(F)F)c1OC [Compound 170, 2-(3,5-Dichloro-pyridin-4-yl)-1-[2-(2-fluoro-6-trifluoromethyl-benzyloxy)-3,4-dimethoxy-phenyl]-ethanone]	< 1000 nM
